In patent publication US20230295157A1, “3-(1H-IMIDAZOL-2-YL)-2,3,8,8A-TETRAHYDROINDOLIZIN-5(1H)-ONE DERIVATIVES USEFUL AS FACTOR XIA INHIBITORS” (JANSSEN PHARMACEUTICA NV, priority 2020, published 2023):
Read-outs that look alike come from different tables or passages of the source.

Columns and labels:
Factor XIa = Factor XIa (Homo sapiens (Human), UniProt P03951); assay: Factor XIa inhibition assay (FLINT) utilizing a fluorophore-quencher pair peptide substrate; assay type: biochemical; details: 30 min preincubation, read-out: FXIa Kin Inh IC50
Factor XIa, sequence (P03951 388-625): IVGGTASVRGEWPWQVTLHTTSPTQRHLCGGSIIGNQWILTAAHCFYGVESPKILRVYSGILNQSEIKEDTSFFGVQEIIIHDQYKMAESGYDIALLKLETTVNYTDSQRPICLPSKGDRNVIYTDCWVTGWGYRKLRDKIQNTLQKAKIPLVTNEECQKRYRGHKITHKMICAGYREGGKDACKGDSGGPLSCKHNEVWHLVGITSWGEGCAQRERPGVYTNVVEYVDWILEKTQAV
Factor XIa, sequence (P03951 19-387 partner): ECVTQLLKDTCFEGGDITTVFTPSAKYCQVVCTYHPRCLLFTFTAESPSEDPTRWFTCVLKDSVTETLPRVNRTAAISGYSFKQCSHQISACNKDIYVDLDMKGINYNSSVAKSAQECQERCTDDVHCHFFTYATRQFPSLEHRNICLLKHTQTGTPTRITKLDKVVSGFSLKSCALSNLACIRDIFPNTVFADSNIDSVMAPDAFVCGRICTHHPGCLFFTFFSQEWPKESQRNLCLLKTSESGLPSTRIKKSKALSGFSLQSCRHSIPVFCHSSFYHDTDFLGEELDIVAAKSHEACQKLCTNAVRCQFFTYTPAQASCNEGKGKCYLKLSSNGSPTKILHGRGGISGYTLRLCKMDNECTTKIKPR
Outline: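 FXIa ([…]) preincubated 30 min with compound (11-point 3-fold dilution, top 100 nM, 2% DMSO), then 15 μM quenched FXI Arg146-based peptide added; Tris pH 7.5, CaCl2, BSA, CHAPS. Fluorescence 485/520 nm read kinetically every 5 min over 30 min at RT; IC50 by 4-parameter fit.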

human plasma kallikrein = human plasma kallikrein (Homo sapiens (Human), UniProt P03952); assay: Kallikrein inhibition assay (FLINT) utilizing a quenched AMC peptide substrate; assay type: biochemical; details: 30 min preincubation, read-out: Kallikrein Kin Inh IC50
human plasma kallikrein, sequence (P03952 391-638): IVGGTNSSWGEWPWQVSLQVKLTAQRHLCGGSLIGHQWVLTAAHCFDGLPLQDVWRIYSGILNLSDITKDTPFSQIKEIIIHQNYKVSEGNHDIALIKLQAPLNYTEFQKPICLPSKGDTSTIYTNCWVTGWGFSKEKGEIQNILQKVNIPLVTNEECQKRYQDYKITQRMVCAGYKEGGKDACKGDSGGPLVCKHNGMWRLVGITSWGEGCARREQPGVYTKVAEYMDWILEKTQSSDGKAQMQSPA
human plasma kallikrein, sequence (P03952 20-390 partner): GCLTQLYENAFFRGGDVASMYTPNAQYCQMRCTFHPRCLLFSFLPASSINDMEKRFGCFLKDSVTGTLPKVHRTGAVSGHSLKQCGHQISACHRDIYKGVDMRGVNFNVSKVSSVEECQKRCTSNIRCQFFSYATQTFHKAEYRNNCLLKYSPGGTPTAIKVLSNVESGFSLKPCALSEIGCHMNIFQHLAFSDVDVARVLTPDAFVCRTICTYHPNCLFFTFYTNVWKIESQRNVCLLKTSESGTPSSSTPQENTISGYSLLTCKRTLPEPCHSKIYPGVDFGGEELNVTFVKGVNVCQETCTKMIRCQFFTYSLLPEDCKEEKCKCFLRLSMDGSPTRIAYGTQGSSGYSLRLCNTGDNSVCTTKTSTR
Outline: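 Fluorogenic Z-Gly-Pro-Arg-AMC cleavage (50 μM substrate, 2 nM kallikrein, Tris pH 7.5, CaCl2, BSA, CHAPS, 2% DMSO) read kinetically at 340/440 nm for 30 min after 30-min compound pre-incubation. Compounds in 11-point 3-fold series from 1 μM; percent inhibition fitted to four-parameter equation for IC50.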

[1] = kinetic reads over 30 min, 5Fam-KLTRAETV-K5Tamra substrate 15 μM
[2] = kinetic reads over 30 min, Z-Gly-Pro-Arg-AMC substrate 50 μM
[3] = kinetic reads over 30 min, 5Fam-[…]-K5Tamra substrate 15 μM

| Compound | IC50 (Factor XIa; [1]) [µM] | IC50 (human plasma kallikrein; μM, kinetic reads) [µM] | IC50 (human plasma kallikrein; [2]) [µM] | IC50 (Factor XIa; [3]) [µM] | IC50 (Factor XIa; μM, kinetic reads) [µM] |
| --- | --- | --- | --- | --- | --- |
| COC(=O)Nc1ccc(-c2cnc([C@@H]3CC[C@H]4CC(c5c(F)ccc(Cl)c5OC(F)F)=CC(=O)N43)[nH]2)cc1 (relative stereo) [Example 319, Methyl (4-(2-((3S,8aS)-7-(3-Chloro-2-(difluoromethoxy)-6-fluorophenyl)-5-oxo-1,2,3,5,8,8a-hexahydroindolizin-3-yl)-1H-imidazol-5-yl)phenyl)carbamate] | – | – | 0.455 | – | 2.2 |
| O=C1C=C(c2c(-n3cc(C(F)(F)F)nn3)ccc(Cl)c2F)C[C@H]2CC[C@@H](c3ncc(-c4c[nH]c5ccncc45)[nH]3)N12 [Example 385, (3S,8aR)-3-(5-(1H-pyrrolo[3,2-c]pyridin-3-yl)-1H-imidazol-2-yl)-7-(3-chloro-2-fluoro-6-(4-(trifluoromethyl)-1H-1,2,3-triazol-1-yl)phenyl)-2,3,8,8a-tetrahydroindolizin-5(1H)-one] | 0.0036 | – | 0.0268 | – | – |
| CC1(C)C[C@@H](c2ncc(-c3ccc(N)nc3Cl)[nH]2)N2C(=O)C=C(c3c(-n4cnnn4)ccc(Cl)c3F)C[C@H]21 (relative stereo) [Example 338, (3S,8aS)-3-(5-(6-Amino-2-chloropyridin-3-yl)-1H-imidazol-2-yl)-7-(3-chloro-2-fluoro-6-(1H-tetrazol-1-yl)phenyl)-1,1-dimethyl-2,3,8,8a-tetrahydroindolizin-5(1H)-one] | – | – | 0.0084 | 0.001 | – |
| Nc1ccc(-c2cnc([C@@H]3CC[C@@H]4CC(c5cc(Cl)ccc5-n5cnnn5)=CC(=O)N43)[nH]2)c(F)n1 (single isomer, unassigned) [Example 120, (3*S,8aR)-3-(5-(6-amino-2-fluoropyridin-3-yl-5-d)-1H-imidazol-2-yl)-7-(5-chloro-2-(1H-tetrazol-1-yl)phenyl-3-d)-2,3,8,8a-tetrahydroindolizin-5(1H)-one] | 0.0045 | – | 0.0677 | – | – |

Continued, values first:

| IC50 (Factor XIa; [1]) [µM] | IC50 (human plasma kallikrein; μM, kinetic reads) [µM] | IC50 (human plasma kallikrein; [2]) [µM] | IC50 (Factor XIa; [3]) [µM] | IC50 (Factor XIa; μM, kinetic reads) [µM] | Compound |
| --- | --- | --- | --- | --- | --- |
| 0.134 | 1.2 | – | – | – | NC(=O)c1ccccc1-c1cnc([C@@H]2CCC3CC(c4c(-n5cnnn5)ccc(Cl)c4F)=CC(=O)N32)[nH]1 (stereo partly drawn) [Example 290, 2-(2-((3S)-7-(3-Chloro-2-fluoro-6-(1H-tetrazol-1-yl)phenyl)-5-oxo-1,2,3,5,8,8a-hexahydroindolizin-3-yl)-1H-imidazol-5-yl)benzamide] |
| 0.0008 | – | 0.0064 | – | – | COC(=O)Nc1nccc(-c2[nH]c([C@@H]3CC[C@@H]4CC(c5c(-n6cnnn6)ccc(Cl)c5F)=CC(=O)N43)nc2F)c1F [Example 40, Methyl N-[4-[2-[(3S,8aR)-7-[3-chloro-2-fluoro-6-(tetrazol-1-yl)phenyl]-5-oxo-2,3,8,8a-tetrahydro-1H-indolizin-3-yl]-4-fluoro-1H-imidazol-5-yl]-3-fluoro-2-pyridyl]carbamate] |
| – | – | 0.0008 | 0.0003 | – | O=C1CCc2cc(-c3cnc([C@@H]4CC[C@@H]5CC(c6c(-n7cnnn7)ccc(Cl)c6F)=CC(=O)N54)[nH]3)ccc2N1 (relative stereo) [Example 281, 6-(2-((3S,8aR)-7-(3-Chloro-2-fluoro-6-(1H-tetrazol-1-yl)phenyl)-5-oxo-1,2,3,5,8,8a-hexahydroindolizin-3-yl)-1H-imidazol-5-yl)-3,4-dihydroquinolin-2(1H)-one] |
| 0.0007 | – | 0.0065 | – | – | O=C1C=C(c2c(-n3cnnn3)ccc(Cl)c2F)C[C@H]2CC[C@@H](c3nc(F)c(-c4ccnc(CO)c4F)[nH]3)N12 [Example 107, (3S,8aR)-7-[3-chloro-2-fluoro-6-(tetrazol-1-yl)phenyl]-3-[4-fluoro-5-[3-fluoro-2-(hydroxymethyl)-4-pyridyl]-1H-imidazol-2-yl]-2,3,8,8a-tetrahydro-1H-indolizin-5-one] |
| 0.0041 | – | 0.0317 | – | – | O=C1C=C(c2c(-n3cnnn3)ccc(Cl)c2F)C[C@H]2CC[C@@H](c3ncc(-c4ccnc([C@@H](O)C(F)(F)F)c4F)[nH]3)N12 (single isomer, unassigned) [Example 171, (3*S,8a*R)-7-(3-chloro-2-fluoro-6-(1H-tetrazol-1-yl)phenyl)-3-(5-(3-fluoro-2-((*R)-2,2,2-trifluoro-1-hydroxyethyl)pyridin-4-yl)-1H-imidazol-2-yl)-2,3,8,8a-tetrahydroindolizin-5(1H)-one] |
